32 compounds from patent publication US20260174721A1, “AGENT FOR RESTORING METAL HOMEOSTASIS” (Oxford Antibiotic Group GmbH, priority 2022, published 2026) can be followed below.

Read-outs that look alike come from different tables or passages of the source. Bounds are passed on as bounds.

One assay relates to Caenorhabditis elegans. Description: C. elegans nematode assay, overall rating over the Alzheimer and Parkinson tests. It counts as in vivo. The settings on record: for minimal effective concentration: Caenorhabditis elegans, read-out: Score. How it is done:
The substances (1) to (41) and (101) to (108), prepared in the above synthesis examples or purchased, were tested for their potential suitability as an agent for treating Alzheimer's disease in a 96-well procedure in the initially mentioned screening assay using the nematode Caenorhabditis elegans (Pretsch et al., see above) in a standardized β-amyloid test system using the transgenic C. elegans strain CL2659. For this purpose, stage L3 worm larvae were used at a density of 10-20 worms per well. The expression of β-amyloid in the muscle cells was induced by increasing the temperature, and the associated paralysis was recorded at regular intervals until the end of the test after 48 hours.
(§1) For this purpose, the above substances were tested at concentrations of 1 mg/ml, 100 μg/ml, and 10 μg/ml in comparison with quercetin as a […] control.
(§2) The same substances as above were tested in a 96-well procedure in the initially mentioned screening assay using the nematode Caenorhabditis elegans (Pretsch et al., see above) in a standardized α-synuclein test system using the transgenic C. elegans strain NL5901 for their potential suitability as an agent for treating Parkinson's disease. This worm strain expresses human α-synuclein bound to green fluorescent protein (GFP) in all muscle cells. GFP labeling allows a direct detection of expressed protein levels using a multiplate reader for 24 to 48 hours.
(§3) For this purpose, the substances were again tested at concentrations of 1 mg/ml, 100 μg/ml, and 10 μg/ml, but this time in comparison to the initially mentioned Parkinson therapeutic agent levodopa as a control.

Assay [1] deals with transgenic C. elegans strain NL5901. Description: α-synuclein test system: reduction of α-synuclein-GFP expression in transgenic C. elegans strain NL5901 (Parkinson testing). It counts as in vivo, Caenorhabditis elegans. To be noted: NL5901, GFP readout 24 to 48 hours, tested at 1 mg/ml, 100 μg/ml, 10 μg/ml, — = no effect even at 1 mg/ml; for minimal effective concentration: Caenorhabditis elegans, read-out: Parkinson: concentration range in which a reduction in α-synuclein expression was detectable. How it is done: as §2, §3

Assay [2] concerns transgenic C. elegans strain CL2659. Description: β-amyloid test system: delay of paralysis in transgenic C. elegans strain CL2659 (Alzheimer testing). It counts as in vivo, Caenorhabditis elegans. The settings on record: CL2659 stage L3 larvae, 48 hours, tested at 1 mg/ml, 100 μg/ml, 10 μg/ml, — = no effect even at 1 mg/ml; for minimal effective concentration: Caenorhabditis elegans, read-out: Alzheimer: concentration range in which a delay in paralysis was observed. How it is done: For this purpose, stage L3 worm larvae were used at a density of 10-20 worms per well. The expression of β-amyloid in the muscle cells was induced by increasing the temperature, and the associated paralysis was recorded at regular intervals until the end of the test after 48 hours.
as §1

The mark [3] stands for this setting: rating from the effective concentration in both tests.

Turning to `NCCCNC(=O)CC(=O)NC12CC3CC(CC(C3)C1)C2` [(18), N-adamantan-1-yl-N′-(3-aminopropyl)malonic acid diamide], the minimal effective concentration (with Caenorhabditis elegans (setting [3]); in assay [1]; in assay [2]) was above 100 µg/mL throughout. Consider `O=C(O)CC(=O)OC12CC3CC(CC(C3)C1)C2` [(10), malonic acid adamantan-1-yl ester N-(3-aminopropyl)amide], for which the minimal effective concentration with Caenorhabditis elegans (setting [3]) is 10 to 100 µg/mL; in assay [1] it was above 10 µg/mL; in assay [2], above 10 µg/mL. On to `CCOC(=O)CC(=O)OC12CC3CC(CC(C3)C1)C2` [(9), malonic acid adamantan-1-yl ethyl ester], for which the minimal effective concentration is 10 to 100 µg/mL in the assay with Caenorhabditis elegans (setting [3]), above 10 µg/mL in assay [1] and above 10 µg/mL in assay [2]. As to `O=C(O)CC(=O)O` [(1), malonic acid], the minimal effective concentration (with Caenorhabditis elegans (setting [3]); in assay [1]; in assay [2]) was above 100 µg/mL throughout. In addition, the “concentration from which the compound was effective” value in the assay on Caenorhabditis elegans (both tests) is above 100 µg/mL. On to `NCCCC(=O)N1CCN(C(=O)CC(=O)OC23CC4CC(CC(C4)C2)C3)CC1` [(13), malonic acid adamantan-1-yl ester 4-(4-aminobutyryl)piperazine amide], for which the results for the minimal effective concentration (in the assay with Caenorhabditis elegans (setting [3]); in assay [1]; in assay [2]) were 10 to 100 µg/mL, above 10 µg/mL and above 10 µg/mL, respectively. Turning to `NCCCNC(=O)CC(=O)N1CCOCC1` [(22), N-(3-aminopropyl)-N′-morpholine malonic acid diamide], the minimal effective concentration with Caenorhabditis elegans lay within 10 to 100 µg/mL. With `O=C(CC(=O)N1CCNCC1)NC12CC3CC(CC(C3)C1)C2` [(20), N-adamantan-1-yl-N′-piperazine malonic acid diamide], the minimal effective concentration with Caenorhabditis elegans (setting [3]) is 10 to 100 µg/mL; in assay [1] it was above 10 µg/mL; in assay [2] it was above 10 µg/mL. For `CNCCCNC(=O)OC(C)(C)C` [(105), 3-(Methylamino)propyl carbamic acid tert-butyl ester, reference compound], the Score entry in the assay with Caenorhabditis elegans (setting [3]) is listed as “−”. With `NCCCNC(=O)CC(=O)N1CCCC2CCCCC21` (stereo not drawn) [(24), N-(3-aminopropyl)-N′-decahydroquinoline malonic acid diamide], the minimal effective concentration was 10 to 100 µg/mL with Caenorhabditis elegans (setting [3]), above 10 µg/mL in assay [1] and above 10 µg/mL in assay [2].

Take `CN(CCCN)C(=O)CC(=O)NC12CC3CC(CC(C3)C1)C2` [(19), N-adamantan-1-yl-N′-(3-aminopropyl)-N′-methyl malonic acid diamide]: the minimal effective concentration in the assay with Caenorhabditis elegans (setting [3]) is 10 to 100 µg/mL; in assay [1], above 10 µg/mL; in assay [2] it was above 10 µg/mL. With `CC12CC3CC(C)(C1)CC(NC(=O)CC(=O)N1CCN(Cc4cccc(C(F)(F)F)c4)CC1)(C3)C2` [(36), N-(3,5-dimethyladamantan-1-yl)-N′-4-(3-trifluoromethylbenzyl)piperazine malonic acid diamide], in the assay with Caenorhabditis elegans, the minimal effective concentration lay within 10 to 100 µg/mL. For `CC12CC3CC(C)(C1)CC(NC(=O)CC(=O)N1CCNCC1)(C3)C2` [(35), N-(3,5-dimethyladamantan-1-yl)-N′-piperazine malonic acid diamide], the minimal effective concentration with Caenorhabditis elegans was 10 to 100 µg/mL. On the same count and under the same terms, as for `COC(=O)CC(=O)[O-].[K+]` [(5), malonic acid methyl ester potassium salt], the figure is 10 to 100 µg/mL. `CC1(C)C2CCC(CNC(=O)CC(=O)NCCCN)C1C2` (stereo not drawn) [(26), N-(3-aminopropyl)-N′-(6,6-dimethylbicyclo[3.1.1]heptane-2-ylmethyl)malonic acid diamide]: the minimal effective concentration in the assay with Caenorhabditis elegans (setting [3]) is 10 to 100 µg/mL; in assay [1], above 10 µg/mL; in assay [2], above 10 µg/mL. Turning to `NCCCNC(=O)C12CC3CC(CC(C3)C1)C2` [(103), 1-Adamantane carboxylic acid-N-(3-aminopropyl)amide, reference compound], the Score result in the assay with Caenorhabditis elegans (setting [3]) was “−”. Turning to `O=C(CC(=O)N1CCN(Cc2cccc(C(F)(F)F)c2)CC1)OC12CC3CC(CC(C3)C1)C2` [(29), malonic acid adamantan-1-yl ester 4-(3-trifluoromethylbenzyl)piperazine amide], in the assay on Caenorhabditis elegans, the minimal effective concentration fell in the range of 10 to 100 µg/mL. Take `CC12CC3CC(C)(C1)CC(NC(=O)CC(=O)NCCCN1CCOCC1)(C3)C2` [(34), N-(3,5-dimethyladamantan-1-yl)-N′-(3-morpholinopropyl)malonic acid diamide]: the minimal effective concentration in the assay with Caenorhabditis elegans (setting [3]) is 10 to 100 µg/mL; in assay [1] it was above 10 µg/mL; in assay [2], above 10 µg/mL. For `O=C(CC(=O)N1CCN(Cc2cccc(F)c2)CC1)OC12CC3CC(CC(C3)C1)C2` [(30), malonic acid adamantan-1-yl ester 4-(3-fluorobenzyl)piperazine amide], the minimal effective concentration in the assay with Caenorhabditis elegans lay in the range of 10 to 100 µg/mL. Same read-out and setting: then `COc1ccccc1N1CCN(C(=O)CC(=O)OC23CC4CC(CC(C4)C2)C3)CC1` [(31), malonic acid adamantan-1-yl ester 4-(2-methoxyphenyl)piperazine amide], with 10 to 100 µg/mL. Take `O=C([O-])CC(=O)[O-].[Na+].[Na+]` [(3), disodium malonate]: the Score result in the assay with Caenorhabditis elegans (setting [3]) was “++ (a compound that is already effective at a concentration >10 μg/ml and therefore rated “++”)”. Moreover, the “Parkinson: concentration range in which a reduction in α-synuclein expression was detectable” value in assay [1] is above 10 µg/mL. Also, the “Alzheimer: concentration range in which a delay in paralysis was observed” value in assay [2] was above 10 µg/mL. For the compound `CN(CCCN)C(=O)CC(=O)OC12CC3CC(CC(C3)C1)C2` [(11), malonic acid adamantan-1-yl ester N-(3-aminopropyl)-N-methylamide], the minimal effective concentration was 10 to 100 µg/mL in the assay with Caenorhabditis elegans (setting [3]), above 10 µg/mL in assay [1] and above 10 µg/mL in assay [2]. As for `COC(=O)C(C)C(=O)OC` [(102), Methyl malonic acid dimethyl ester, reference compound], the “efficacy in the C. elegans assay” value with Caenorhabditis elegans (both tests) is reported as “neither dimethyl malonic acid (101) nor dimethyl malonic acid dimethyl ester (102) proved to be effective”. Also, the Score entry with Caenorhabditis elegans (setting [3]) is “−”. On to `CC(C)(C)OC(=O)NCCCN` [(104), 3-Aminopropyl carbamic acid tert-butyl ester, reference compound], for which the Score entry in the assay on Caenorhabditis elegans (setting [3]) is “−”.

For `OC12CC3CC(CC(C3)C1)C2` [(106), 1-Adamantanol, reference compound], in the assay with Caenorhabditis elegans (setting [3]), the Score result was “−”. As to `NCCCNC(=O)CC(=O)N1CCCc2ccccc21` [(108), N-(3-aminopropyl)-N′-tetrahydroquinoline malonic acid diamide], the “efficacy in the C. elegans assay” value with Caenorhabditis elegans (both tests) is listed as “ineffectiveness”. The Score entry in the assay with Caenorhabditis elegans (setting [3]) is given as “−”. As to `COc1ccc(N2CCN(C(=O)CC(=O)NC34CC5CC(C)(CC(C)(C5)C3)C4)CC2)cc1` [(39), N-(3,5-dimethyladamantan-1-yl)-N′-4-(4-methoxyphenyl)piperazine malonic acid diamide], the minimal effective concentration with Caenorhabditis elegans was in the range of 10 to 100 µg/mL. As for `NCCCNC(=O)CC(=O)N1CCCCC1` [(23), N-(3-aminopropyl)-N′-piperidine malonic acid diamide], the minimal effective concentration in the assay with Caenorhabditis elegans fell in the range of 10 to 100 µg/mL. On to `O=C(CC(=O)N1CCNCC1)OC12CC3CC(CC(C3)C1)C2` [(12), malonic acid adamantan-1-yl ester piperazine amide], for which the minimal effective concentration in the assay on Caenorhabditis elegans was 10 to 100 µg/mL.

In the case of `CC(C)(C(=O)O)C(=O)O` [(101), Dimethyl malonic acid, reference compound], the “efficacy in the C. elegans assay” value in the assay on Caenorhabditis elegans (both tests) is “neither dimethyl malonic acid (101) nor dimethyl malonic acid dimethyl ester (102) proved to be effective”. Further, the Score result with Caenorhabditis elegans (setting [3]) is on record as “−”. `NC12CC3CC(CC(C3)C1)C2` [(107), 1-Adamantanamine, reference compound]: in the assay with Caenorhabditis elegans (setting [3]), the Score result is reported as “−”. Regarding `CC12CC3CC(C)(C1)CC(NC(=O)CC(=O)N1CCN(Cc4cccc(F)c4)CC1)(C3)C2` [(37), N-(3,5-dimethyladamantan-1-yl)-N′-4-(3-fluorobenzyl)piperazine malonic acid diamide], the minimal effective concentration in the assay with Caenorhabditis elegans was 10 to 100 µg/mL. The same measure, in the same setting: then `COc1ccc(N2CCN(C(=O)CC(=O)NC34CC5CC(C)(CC(C)(C5)C3)C4)CC2)c(OC)c1` [(40), N-(3,5-dimethyladamantan-1-yl)-N′-4-(2,4-dimethoxyphenyl)piperazine malonic acid diamide], with 10 to 100 µg/mL.
